Laboratory results from patent publication US7662778B2, “Histone deacetylase inhibitor and process for producing the same” (Riken, priority 2003, dated 2010).
Where two headings read alike, the source gives them in different places. Each block holds one compound with its values, some of them ahead of it. Where a SMILES comes first, the peptide text is derived from it. [ ]: non-standard residue; d: D form. The star is where a group is joined. hLys(Nζ-OH,Nζ-For) = N[C@@H](CCCCCN(O)C=O)C(=O)O; Asu = N[C@@H](CCCCCC(=O)O)C(=O)O; NH(2-NH2-phenyl) = Nc1ccccc1N*; dPip = O=C(O)[C@H]1CCCCN1; X1 = Oc1ccccc1N*; X2 = Nc1ccccc1O*; X3 = Sc1ccccc1N*

Assays:
[1] = amide bond, 12-membered ring, DMF
[2] = tested on: human wild-type p21 promoter; test: p21 promoter-inducing activity (luciferase) in MFLL-9 cells; assay type: cell-based
Experimental: The HDAC inhibitory activity in vivo was measured using p21 promoter-inducing activity as an index, as shown below. The MFLL-9 cells employed for the experiments stably maintained fusion genes of human wild-type p21 promoter and luciferase (Dr. B. Vogelstaein). Using phenol red-free DMEM medium comprising 10% FBS, cultivation was carried out in a steam-saturated incubator at 37° C. with 5% carbon dioxide. The MFLL-9 cells were plated at a density of 85,000 cells/well on a 96-well microtiter plate, each in 99 μl of the above-mentioned medium. These were then cultivated for six hours. One μl of test compound solution was added to each well, which was then cultured for another 18 hours.
The intensity of luminescence caused by the product of the enzyme reaction for intracellular luciferase expression was measured using Luc Lite (Packard BioScience Company).
HDAC inhibitory activity in an in vivo system was measured using p21 promoter induction as index. The experimental method followed that of Example 11.

[3] = biological target: T1, human HDAC1 (Homo sapiens, UniProt Q13547); test: HDAC inhibitory activity in vitro (coumarin-labeled acetylated histone peptide), HDAC1; assay type: biochemical
T1 construct: FLAG; made in house; host or cells: 293T cells, transient transfection; anti-FLAG immunoprecipitation and FLAG peptide elution

[4] = biological target: T2, human HDAC4 (Homo sapiens, UniProt P56524); test: HDAC inhibitory activity in vitro (coumarin-labeled acetylated histone peptide), HDAC4; assay type: biochemical
T2 construct: FLAG; made in house; host or cells: 293T cells, transient transfection; anti-FLAG immunoprecipitation and FLAG peptide elution

[5] = biological target: T3, mouse HDAC6 (Mus musculus, UniProt Q9Z2V5); test: HDAC inhibitory activity in vitro (coumarin-labeled acetylated histone peptide), HDAC6; assay type: biochemical
T3 construct: HA; made in house; host or cells: 293T cells, transient transfection; anti-HA immunoprecipitation and HA peptide elution
T3 sequence (Q9Z2V5 1-1149): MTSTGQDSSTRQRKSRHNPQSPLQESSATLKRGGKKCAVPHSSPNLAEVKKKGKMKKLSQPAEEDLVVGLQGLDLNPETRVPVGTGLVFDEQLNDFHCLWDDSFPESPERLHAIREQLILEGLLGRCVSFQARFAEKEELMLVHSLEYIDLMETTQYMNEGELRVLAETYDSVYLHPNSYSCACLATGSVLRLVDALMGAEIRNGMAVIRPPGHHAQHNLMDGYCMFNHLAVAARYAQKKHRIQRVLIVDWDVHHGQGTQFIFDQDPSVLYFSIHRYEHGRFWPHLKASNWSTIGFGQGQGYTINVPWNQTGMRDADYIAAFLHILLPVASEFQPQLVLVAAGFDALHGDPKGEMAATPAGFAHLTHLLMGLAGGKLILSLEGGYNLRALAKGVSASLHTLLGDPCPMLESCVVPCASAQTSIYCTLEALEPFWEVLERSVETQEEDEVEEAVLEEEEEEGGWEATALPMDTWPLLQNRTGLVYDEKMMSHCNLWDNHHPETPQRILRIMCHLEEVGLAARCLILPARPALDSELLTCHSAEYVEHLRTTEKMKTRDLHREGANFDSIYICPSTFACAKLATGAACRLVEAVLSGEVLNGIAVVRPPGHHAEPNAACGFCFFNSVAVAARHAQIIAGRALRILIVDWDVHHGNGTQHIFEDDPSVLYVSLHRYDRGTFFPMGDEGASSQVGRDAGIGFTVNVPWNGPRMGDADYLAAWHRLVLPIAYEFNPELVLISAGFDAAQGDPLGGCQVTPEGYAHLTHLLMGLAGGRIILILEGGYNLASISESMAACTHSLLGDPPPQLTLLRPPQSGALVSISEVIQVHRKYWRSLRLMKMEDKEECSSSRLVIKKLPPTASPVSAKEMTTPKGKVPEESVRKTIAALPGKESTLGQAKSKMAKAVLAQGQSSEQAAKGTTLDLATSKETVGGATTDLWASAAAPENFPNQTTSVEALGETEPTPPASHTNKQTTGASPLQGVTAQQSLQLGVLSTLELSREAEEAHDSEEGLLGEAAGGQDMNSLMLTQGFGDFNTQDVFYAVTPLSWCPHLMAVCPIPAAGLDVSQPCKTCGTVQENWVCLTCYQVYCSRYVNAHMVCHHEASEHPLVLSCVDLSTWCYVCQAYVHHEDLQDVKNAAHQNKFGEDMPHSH

[6] = Table 1, MFLL-9 cells, 18 hours, concentration corresponding to 50% of the maximum active value for TSA
[7] = Table 1, 37° C., 30 minutes, read-out: IC50 (μM) HDAC1
[8] = Table 1, 37° C., 30 minutes, read-out: IC50 (μM) HDAC4
[9] = Table 1, 37° C., 30 minutes, read-out: IC50 (μM) HDAC6
[10] = Table 3, method of Example 11, 50% of the maximum activity observed in TSA
[11] = Table 3, method of Example 11, read-out: IC50(μM) HDAC1
[12] = Table 3, method of Example 11, read-out: IC50(μM) HDAC4
[13] = Table 3, method of Example 11, read-out: IC50(μM) HDAC6

T2 sequence (P56524 whole entry): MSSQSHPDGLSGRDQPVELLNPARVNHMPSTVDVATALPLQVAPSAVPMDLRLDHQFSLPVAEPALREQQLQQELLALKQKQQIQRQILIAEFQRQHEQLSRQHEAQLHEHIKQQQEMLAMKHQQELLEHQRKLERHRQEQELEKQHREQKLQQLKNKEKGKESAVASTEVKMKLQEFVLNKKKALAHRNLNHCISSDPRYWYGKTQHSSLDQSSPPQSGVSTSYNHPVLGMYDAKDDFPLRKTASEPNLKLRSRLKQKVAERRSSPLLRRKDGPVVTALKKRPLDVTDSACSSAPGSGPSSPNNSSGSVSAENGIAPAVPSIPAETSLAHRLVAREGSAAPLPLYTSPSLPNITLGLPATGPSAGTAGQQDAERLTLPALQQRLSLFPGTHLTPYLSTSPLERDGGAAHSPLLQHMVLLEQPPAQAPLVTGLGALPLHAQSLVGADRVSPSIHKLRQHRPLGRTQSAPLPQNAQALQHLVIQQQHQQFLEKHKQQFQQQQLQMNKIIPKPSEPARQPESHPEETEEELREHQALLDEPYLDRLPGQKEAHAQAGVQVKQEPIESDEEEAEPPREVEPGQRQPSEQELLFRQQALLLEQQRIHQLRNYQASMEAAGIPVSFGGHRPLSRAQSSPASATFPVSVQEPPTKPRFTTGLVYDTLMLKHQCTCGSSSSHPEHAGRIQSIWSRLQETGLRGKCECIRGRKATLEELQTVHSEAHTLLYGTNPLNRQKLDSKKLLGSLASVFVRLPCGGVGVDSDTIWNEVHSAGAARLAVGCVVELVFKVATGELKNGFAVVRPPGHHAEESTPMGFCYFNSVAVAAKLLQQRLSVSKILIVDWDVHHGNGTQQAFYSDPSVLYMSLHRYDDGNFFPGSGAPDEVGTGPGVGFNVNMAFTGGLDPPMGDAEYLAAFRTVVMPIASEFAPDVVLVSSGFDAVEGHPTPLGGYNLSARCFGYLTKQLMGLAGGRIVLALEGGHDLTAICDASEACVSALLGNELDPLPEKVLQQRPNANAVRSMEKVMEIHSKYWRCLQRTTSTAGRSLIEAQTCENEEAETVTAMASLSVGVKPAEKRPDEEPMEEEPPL
T1 sequence (Q13547 whole entry): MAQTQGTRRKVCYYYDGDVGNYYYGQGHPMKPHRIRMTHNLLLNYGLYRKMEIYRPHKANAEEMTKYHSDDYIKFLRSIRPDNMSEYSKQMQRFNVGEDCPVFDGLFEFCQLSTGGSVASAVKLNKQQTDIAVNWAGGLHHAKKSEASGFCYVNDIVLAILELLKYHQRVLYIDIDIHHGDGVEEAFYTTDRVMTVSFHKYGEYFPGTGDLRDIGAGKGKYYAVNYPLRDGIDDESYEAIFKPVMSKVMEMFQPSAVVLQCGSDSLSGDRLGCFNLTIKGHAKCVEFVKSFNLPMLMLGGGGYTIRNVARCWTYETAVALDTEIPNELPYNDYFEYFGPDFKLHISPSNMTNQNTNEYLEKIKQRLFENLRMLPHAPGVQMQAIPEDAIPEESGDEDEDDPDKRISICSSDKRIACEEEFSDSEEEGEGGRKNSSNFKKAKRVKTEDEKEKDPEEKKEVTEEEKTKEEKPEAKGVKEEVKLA

Compound: CC[C@H](C)[C@@H]1NC(=O)[C@@H](Cc2ccc(OC)cc2)NC(=O)[C@H](CCCCN(C=O)OCc2ccccc2)NC(=O)[C@H]2CCCCN2C1=O [cyclo(-L-Lys(For, OBzl)-D-Tyr(Me)-L-Ile-D-Pip-)]
- ring closure, isolated yield ([1]; from H-dTyr(Me)-Ile-dPip-Lys(For,OBzl)-OH?, HATU/DIEA, 0.4 mM, 25.0 °C): 25%

Compound: cyclo(-L-Aph-D-Tyr(Me)-L-Ile-D-Pro-)
- ring closure, isolated yield ([1]; HATU/DIEA, 2.7 mM, 25.0 °C, 2 steps): 11%

Compound: CC[C@H](C)[C@@H]1NC(=O)[C@@H](Cc2ccc(OC)cc2)NC(=O)[C@H](CCCCCC(=O)Nc2ccccc2S)NC(=O)[C@H]2CCCN2C1=O [OATP, cyclo(L-Asu(OATP)-D-Tyr(Me)-L-Ile-D-Pro)] (cyclo([Asu](X3)[dY](Me)I[dP]))
- IC50 [3]: 2.03 µM
- IC50 [4]: 0.23 µM
- IC50 [5]: 408 µM
- EC50 [2, 10]: > 100 µM

Compound: CC[C@H](C)[C@@H]1NC(=O)[C@@H](Cc2ccc(OC)cc2)NC(=O)[C@H](CCCCCCN(C=O)OCc2ccccc2)NC(=O)C2CCCCN2C1=O (mixture of isomers) [Cyclo(-L-A2oc(For, OBzl)-D-Tyr(Me)-L-Ile-DL-Pip-)]
- ring closure, isolated yield ([1]; from H-dTyr(Me)-Ile-DL-Pip-A2oc(For,OBzl)-OH, HATU/DIEA, 1.6 mM, 25.0 °C): 21%

Compound: CC[C@H](C)[C@@H]1NC(=O)[C@@H](Cc2ccc(OC)cc2)NC(=O)[C@H](CCCCOn2nnc3cccnc32)NC(=O)[C@H]2CCCN2C1=O [cyclo(-L-Ab6-D-Tyr(Me)-L-Ile-D-Pro-)]
- ring closure, isolated yield ([1]; from H-dTyr(Me)-Ile-dPro-Ab6-OH, HBTU/HOBt/DIEA, 5.4 mM, 2 steps): 32%

Compound: CC[C@H](C)[C@@H]1NC(=O)[C@@H](Cc2ccc(OC)cc2)NC(=O)[C@H](CCCCCN(O)C=O)NC(=O)[C@H]2CCCN2C1=O [N(OH)COH Cyclo(X-y(Me)-I-p), n = 5] (cyclo([hLys(Nζ-OH,Nζ-For)][dY](Me)I[dP]))
- IC50 [4, 8]: 0.074 µM
- IC50 [5, 9]: 0.78 µM

Compound: CC[C@H](C)[C@@H]1NC(=O)[C@@H](Cc2ccc(OC)cc2)NC(=O)[C@H](CCCCCS(C)(=O)=O)NC(=O)[C@H]2CCCN2C1=O [SO2Me]
- EC50 [2, 6]: > 100 µM

Compound: CC[C@H](C)[C@@H]1NC(=O)[C@@H](Cc2ccc(OC)cc2)NC(=O)[C@H](CCCCCCN(O)C=O)NC(=O)[C@H]2CCCCN2C1=O [N(OH)COH Cyclo(X-y(Me)-I-pip), n = 6]
- IC50 [3, 7]: 6.36 µM
- IC50 [4, 8]: 7.02 µM
- IC50 [5, 9]: 12.2 µM

Compound: CC[C@H](C)[C@@H]1NC(=O)[C@@H](Cc2ccc(OC)cc2)NC(=O)[C@H](CCCCCC(=O)Nc2ccccc2N)NC(=O)[C@H]2CCCN2C1=O [OPD, cyclo(L-Asu(OPD)-D-Tyr(Me)-L-Ile-D-Pro)] (cyclo([Asu](NH(2-NH2-phenyl))[dY](Me)I[dP]))
- IC50 [3, 11]: 4.04 µM
- IC50 [4, 12]: 15.7 µM
- IC50 [5, 13]: 321 µM
- EC50 [2, 10]: 30.9 µM

Other lines, results leading:

- EC50 [2, 6]: > 100 µM
Compound: Cyclo(-L-Asu(OBzl)-D-Tyr(Me)-L-Ile-D-Pro-) [COOBzI]

- IC50 [3, 7]: 13.5 µM
- IC50 [4, 8]: 18.9 µM
- IC50 [5, 9]: 11.2 µM
Compound: CC[C@H](C)[C@@H]1NC(=O)[C@@H](Cc2ccc(OC)cc2)NC(=O)[C@H](CCCCCCN(O)C=O)NC(=O)[C@@H]2CCCCN2C1=O [N(OH)COH Cyclo(X-y(Me)-I-Pip), n = 6]

- IC50 [3, 7]: 4.07 µM
- IC50 [4, 8]: 5.69 µM
- IC50 [5, 9]: > 500 µM
- EC50 [2, 6]: > 100 µM
Compound: CC[C@H](C)[C@@H]1NC(=O)[C@@H](Cc2ccc(OC)cc2)NC(=O)[C@H](CCCCCC(=O)O)NC(=O)[C@H]2CCCN2C1=O [COOH, cyclo(L-Asu-D-Tyr(Me)-L-Ile-D-Pro)] (cyclo([Asu][dY](Me)I[dP]))

- EC50 [2, 6]: > 100 µM
Compound: CC[C@H](C)[C@@H]1NC(=O)[C@@H](Cc2ccc(OC)cc2)NC(=O)[C@H](CCCCCSC)NC(=O)[C@H]2CCCN2C1=O [SMe]

- IC50 [3]: 0.067 µM
- IC50 [4]: 0.13 µM
- IC50 [5]: 0.18 µM
- EC50 [2, 6]: 3.73 µM
Compound: CC[C@H](C)[C@@H]1NC(=O)[C@@H](Cc2ccc(OC)cc2)NC(=O)[C@H](CCCCCN(O)C=O)NC(=O)[C@H]2CCCCN2C1=O [N(OH)COH Cyclo(X-y(Me)-I-pip), n = 5, cyclo(-L-Hly(For, OH)-D-Tyr(Me)-L-Ile-D-Pip-)] (cyclo(I[dPip][hLys(Nζ-OH,Nζ-For)][dY](Me)))

- IC50 [3, 7]: 0.12 µM
- IC50 [4, 8]: 0.07 µM
- IC50 [5, 9]: > 500 µM
- EC50 [2, 6]: 3.95 µM
Compound: CC[C@H](C)[C@@H]1NC(=O)[C@@H](Cc2ccc(OC)cc2)NC(=O)[C@H](CCCCCC(=O)OC)NC(=O)[C@H]2CCCN2C1=O [COOMe, cyclo(-L-Asu(OMe)-D-Tyr(Me)-L-Ile-D-Pro-)] (cyclo([Asu](OMe)[dY](Me)I[dP]))

- IC50 [3, 7]: 23.9 µM
- IC50 [4, 8]: 17.5 µM
- IC50 [5, 9]: 8.19 µM
Compound: CC[C@H](C)[C@@H]1NC(=O)[C@@H](Cc2ccc(OC)cc2)NC(=O)[C@H](CCCCN(O)C=O)NC(=O)[C@@H]2CCCCN2C1=O [N(OH)COH Cyclo(X-y(Me)-I-Pip), n = 4]

- IC50 [3, 11]: 1.22 µM
- IC50 [4, 12]: 0.23 µM
- EC50 [2, 10]: 55.1 µM
Compound: CC[C@H](C)[C@@H]1NC(=O)[C@@H](Cc2ccc(OC)cc2)NC(=O)[C@H](CCCCCC(=O)Nc2ccccc2O)NC(=O)[C@H]2CCCN2C1=O [OAPOH, cyclo(L-Asu(OAPOH)-D-Tyr(Me)-L-Ile-D-Pro)] (cyclo([Asu](X1)[dY](Me)I[dP]))

- IC50 [4, 8]: 0.09 µM
- IC50 [5, 9]: 0.029 µM
Compound: CC[C@H](C)[C@@H]1NC(=O)[C@@H](Cc2ccc(OC)cc2)NC(=O)[C@H](CCCCCN(O)C=O)NC(=O)[C@@H]2CCCN2C1=O [N(OH)COH Cyclo(X-y(Me)-I-P), n = 5] (cyclo([hLys(Nζ-OH,Nζ-For)][dY](Me)IP))

- IC50 [3, 7]: 33.9 µM
- IC50 [4, 8]: 25.2 µM
- IC50 [5, 9]: 14.3 µM
Compound: CC[C@H](C)[C@@H]1NC(=O)[C@@H](Cc2ccc(OC)cc2)NC(=O)[C@H](CCCCN(O)C=O)NC(=O)[C@H]2CCCCN2C1=O [N(OH)COH Cyclo(X-y(Me)-I-pip), n = 4]

- IC50 [3, 11]: 0.4 µM
- IC50 [4, 12]: 0.24 µM
- IC50 [5, 13]: 441 µM
- EC50 [2, 10]: 12.9 µM
Compound: CC[C@H](C)[C@@H]1NC(=O)[C@@H](Cc2ccc(OC)cc2)NC(=O)[C@H](CCCCCC(=O)Oc2ccccc2N)NC(=O)[C@H]2CCCN2C1=O [OAPNH, cyclo(L-Asu(OAPNH)-D-Tyr(Me)-L-Ile-D-Pro)] (cyclo([Asu](X2)[dY](Me)I[dP]))

- EC50 [2, 6]: > 100 µM
Compound: CC[C@H](C)[C@@H]1NC(=O)[C@@H](Cc2ccc(OC)cc2)NC(=O)[C@H](CCCCS(=O)(=O)CC(=O)C(F)(F)F)NC(=O)[C@H]2CCCN2C1=O [Stfk]
